{"source": "patent US20230132973A1", "about": "“DIHYDRO-SPIRO[INDOLINE-3:1'-iSOQUINOLIN]-2-ONES AS ANTIMALARIAL AGENTS” (The University of Buea, priority 2020, published 2023)", "key": {"[1]": {"test_system": "P. chabaudi-infected mice", "assay": "Peter's four-day suppressive test (chemosuppressive activity)", "format": "in vivo, Swiss albino mice", "description": "Following the encouraging in vitro antiplasmodial activities and cytotoxicity profiles reported above, as well as the ADMET properties of the primary and secondary hits identified in this study, studies were carried out to assess the in vivo efficacy of these compounds in laboratory mice. Chemosuppressive potentials were assessed using the Peter's four-day test whereas the ability of each compound to cure an established plasmodial infection was determined using the Rane's test. To assess the in vivo chemosuppressive potential of the compounds, groups of P. chabaudi-infected mice were treated by ip injection for 3 days following infection using fixed doses of 0.03, 0.3, 3, 10, or 30 mg/kg for each compound. The percent suppression of parasite growth in treated groups was calculated relative to the control group and the growth inhibition curves plotted.\nEight-week old male Swiss albino mice weighing approximately 23±3 g were housed in cages and maintained in a well-ventilated room under standard environmental conditions of temperature at 22-24° C., under a 12 h dark-light cycle, with food and water provided ad libitum.\nThe animals were allowed one week acclimation before commencement of the study. Three (3) mice were infected with stocked blood containing Plasmodium chabaudi parasites and used as donors. In brief, frozen blood containing the sulfadoxine/pyrimethamine resistant P. c. chabaudi (AS(50S/P) parasites was thawed and about 200 μL parasites were injected intra-peritoneally (i.p) into each of the three mice and parasitemia monitored through blood smear until a 20% threshold was reached. These infected animals then served as donors to the experimental animals. Ethical approval for the study was obtained from the University of Douala Institutional Review Board (N^oIEC-UD/1146/09/2017/A).\nIn vivo efficacies were conducted following a modification of the Peter's four-day suppressive test as previously described (Lee et al., 2014, Tarkang et al., 2014). Briefly, following parasite passage in donor mice, the mice were euthanized using diethyl ether and P. c. chabaudi infected blood was obtained by cardiac puncture and placed into heparinized tubes. The blood was then diluted with phosphate buffered saline (PBS) and immediately used to infect the experimental mice. Mice were randomly divided into seven (7) groups of 3 animals and each mouse was injected with 1×10^7 infected erythrocytes intraperitoneally (Day 0). The mice were kept for 24 hours to establish infection and Giemsa thin blood smears were prepared to quantify parasites (Day 1). Thereafter, groups 1, 2, 3, 4 and 5 were treated with compounds dissolved in 1×PBS, intraperitoneally at dosages of 30, 10, 3, 0.3 and 0.03 mg/kg body weight, respectively, while groups 6 and 7 were treated with vehicle or chloroquine at 10 mg/kg, respectively for three consecutive days (Day 1-Day 3). Twenty-four (24) and ninety-six (96) hours post-infection, thin blood smears were prepared from each animal with blood obtained from the tail vein, fixed in methanol and stained with 10% Giemsa.\nParasitemia was determined by light microscopy using a 100× objective lens and the following equation: […]\nAverage percentage chemosuppression was calculated as\nWhere A is mean parasitemia in negative control and B is mean parasitemia in test group"}, "[2]": {"test_system": "Human Liposarcoma (SW872) cells", "assay": "MTT cell proliferation (cytotoxicity) assay, SW872 cells", "format": "cell-based", "description": "(§1) By principle, the soluble MTT is reduced to an insoluble colored formazan product by mitochondrial succinate dehydrogenase in viable cells. Normal African Green Monkey Kidney Epithelial (Vero) and the Human Liposarcoma (SW872) cells were maintained in MEM supplemented with 10% FBS, 1% Glutamine and 1% penicillin-streptomycin. Confluent cells were trypsinized and seeded at a density of 2500 cells/well (total volume 90 μL) in 96-well plates and incubated for 24 h prior to drug treatment. Two-fold serial dilutions of the compounds (100-0.0488 μM) were added to the plates and incubated under humidified conditions at 37° C. for 48 h. Absorbance of the formed formazan product was measured at 550 nm wavelength using a SUNRISE microtiter plate reader. […] Selectivity indices (SI=CC50/EC50) were calculated as an indication of toxicity relative to the observed antiplasmodial activity."}, "[3]": {"test_system": "Normal African Green Monkey Kidney Epithelial (Vero) cells", "assay": "MTT cell proliferation (cytotoxicity) assay, Vero cells", "format": "cell-based", "description": "as §1"}, "[4]": {"test_system": "hemoglobin metabolism in P. falciparum ring and trophozoite stage parasites", "assay": "Effect on hemoglobin degradation (intraparasitic hemoglobin content)", "format": "cell-based, Plasmodium falciparum", "conditions": "10 μM, 24 h, relative to E64-treated cultures; listed as (±)-moxiquindole", "description": "Owing to the fact that the DSIIQs are constructed from the THIQ pharmacophore of naphthylisoquinolines, which appear to target proteases involved in hemoglobin degradation, we assessed the effect of this DSIIQ on hemoglobin metabolism. Briefly, tightly synchronized ring and trophozoite stage parasites were treated with test compounds for 24 h followed by parasite isolation and quantification of the intraparasitic hemoglobin contents.\nTo investigate drug effects on hemoglobin degradation, early ring and mid-trophozoite stage parasites (1.5% hematocrit, 5% parasitemia) were co-cultured with the test compounds or experimental controls (0.1% DMSO, chloroquine, artemisinin NITD609 and E64) at a final concentration of 10 μM. The cultures were incubated at 37° C. and 5% CO2 for 24 h. Following incubation, inhibitors were removed by centrifugation at 1800 rpm for 5 min. The pellets were washed in an equal volume of 1×PBS and re-suspended in same volume of 0.1% saponin (in 1×PBS) for 3 min. Isolated parasites were pelleted at 2500 rpm for 5 min and washed twice in an equal volume of 1×PBS. The resulting parasite pellets were permeabilized by treatment in 20 μL of 1% Triton X-100 (in 1×PBS) for 5 min. Intraparasitic hemoglobin content was measured at 550 nm using a Nanodrop spectrophotometer, and folds increase in intra-parasite hemoglobin content was calculated relative to the E64-treated controls."}, "[5]": {"test_system": "Malaria parasites (ring-stage parasitized erythrocytes)", "assay": "Drug-combination (drug-drug interaction) studies, SYBR-Green I", "format": "cell-based, Plasmodium falciparum", "description": "In view of the overlapping modes of action between the hybrids and some known antimalarial drugs in terms of targeted cellular processes, we investigated the interaction between these compounds at variable combination ratios. Malaria parasites were continuously cultured and synchronized as earlier described prior to the assay.\nBriefly, two-fold drug dilutions were prepared using a variable potency ratio drug combination approach, starting at 5EC50A: 0EC50B to 0EC50A: 5EC50B in serum-free medium, where A and B represent the different partner molecules.\nThe test was run for 72 h and terminated when the untreated parasites were at the early trophozoite stage of the second cycle. Parasite viability was assessed by the SYBR-Green I fluorescence-based assay as earlier described. Dose-response curves and EC50 values of each combination and drug alone were obtained using GraphPad Prism v.5.0 and Microsoft Excel was used to calculate mean EC50 values and the standard error of the mean."}}, "note": "Entries after “also recorded” stand apart in the source; their conditions may differ.", "data": [{"smiles": "COc1cc2c(cc1OC)C1(NCC2)C(=O)Nc2ccc(Cl)cc21", "note": "(stereo not drawn) [Compound 8b]", "values": [{"measurement": "suppression of parasitemia", "setting": "[1]; 3.0 mg/kg ip", "value": 98, "unit": "%"}, {"measurement": "suppressive ED50", "setting": "[1]; ip, 3 days, P. chabaudi-infected mice", "value": 0.25, "unit": "mg/kg"}, {"measurement": "CC50", "setting": "[2]; SW872, MTT", "value": "> 100", "unit": "µM"}, {"measurement": "cell viability", "setting": "[2]; SW872, up to 100 μM compound concentration, 48 h", "value": "no significant decrease in cell viability"}, {"measurement": "CC50", "setting": "[3]; MTT", "value": "> 100", "unit": "µM"}, {"measurement": "cell viability", "setting": "[3]; up to 100 μM compound concentration, 48 h", "value": "no significant decrease in cell viability"}, {"measurement": "intraparasitic hemoglobin content / accumulation", "setting": "[4]", "value": "significantly higher; also recorded: accumulation of intra-parasitic hemoglobin"}, {"measurement": "combination index (CI)", "setting": "[5]; in combination with artemisinin", "value": 1.440}, {"measurement": "combination index (CI)", "setting": "[5]; in combination with chloroquine", "value": 1.478}]}]}
